We go through two compounds from patent publication EP0229966A1, “Process for the control of weeds in useful plant cultures and means for performing the process” (SIEGFRIED AKTIENGESELLSCHAFT, priority 1985, dated 1987).

Data set [1] concerns 7 repräsentative Unkraut- arten. Put plainly: Greenhouse pot test, spray directly after sowing, EWRC rating, weeds (Tabelle I). The following applies: EWRC scale, 1 = völlige Abtötung, 9 = völlige Wirkungslosigkeit. It is filed as in vivo. The source says:
(§1) Der Tabelle 1 liegen orientierende Versuche zugrunde, welche im klimatisierten Gewächshaus durchgeführt wurden, wobei 7 repräsentative Unkraut- arten und als Beispiel einer Kulturpflanze Raps benützt wurden. Unmittelbar nach dem Beschicken der Kunststofftöpfe mit dem Saatgut wurde (abge-
(§2) sehen von der unbehandelt bleibenden Kontrollserie) je eine Serie behandelt durch Aufsprühen einer wässrigen Suspension bzw. Emulsion, welche als Herbizid entweder nur den Aktivstoff I oder II in unterschiedlicher Menge oder beide Stoffe kombiniert in unterschiedlichen Mengen und Mengenverhältnissen enthielt. Die eingesetzten Aktivstoff-Mengen wurden umgerechnet auf die Aufwändmengen in Gramm Wirkstoff pro Hektar. Die Effekte wurden innert vier Wochen mehrmals begutachtet und protokolliert.
(§3) Die in der Tabelle I enthaltenen Wirkungsangaben wurden nach der Bonitierungs-Skala des European Weed Research Council (EWRC) bestimmt, wobei hier sowohl für Unkräuter wie auch für Kulturpflanze der Wert 1 der völligen Abtötung und der Wert 9 der völligen Wirkungslosigkeit zugeordnet wurde: […]

A further data set deals with Raps. Put plainly: Greenhouse pot test, spray directly after sowing, crop tolerance (Tabelle I). The class given is in vivo.
Description: as §1, §2, §3

For data set [2], the system named is Chenopodium album ("CHEAL"). Description: Field trial, Swiss Mittelland, percent weed control from plant counts (Tabelle II). The class given is in vivo, Chenopodium album L. The following applies: four weeks after treatment. The source says:
Die Tabelle II zeigt Resultate von Versuchen, die im Freien, nämlich im schweizerischen Mittelland auf mittelschwerem sandigem Lehmboden durchgeführt wurden. Die hier wiedergegebenen Werte sind Prozent-Zahlen, die errechnet wurden aufgrund der Formel [formula] wobei AK die Individuenzahl der jeweiligen Unkraut-Art pro Flächeneinheit der unbehandelten Kontrollparzelle und AB die entsprechende Individuenzahl pro Flächeneinheit der jeweiligen behandelten Partelle bedeutet. Die Ermittlung der Wirkung erfolgte vier Wochen nach Behandlung.

The next data set concerns Maus. Particulars: cited from earlier work.
The next data set concerns Ratte. The following applies: cited from earlier work.

`CCN(CC)C(=O)SCc1ccccc1Cl` [Aktivstoff I, S-(2-Chlorbenzyl)-N,N-diethyl-thiocarbamat]: the “Durchschnittswert (EWRC) gegenüber den 7 Unkraut-Arten” value in data set [1] (4000 g/ha Aktivstoff I alone) is listed as 3,5. Further, in the data set with Raps (2000 g/ha Aktivstoff I alone), the “Schädigung Raps” value is listed as “deutlich geschädigt”. Further, in data set [2] (4000 g/ha Aktivstoff I alone), the “Wirkung auf Chenopodium album” value is given as 87%. In addition, the “LD 50 p.o.” value in the data set with Maus was ~1850 mg/kg.

Take `Cc1cccc(C)c1N(Cn1cccn1)C(=O)CCl` [Aktivstoff II, N-(2,6-Dimethylphenyl)-N-(1-pyrazolylmethyl)-chloracetamid]: the “Durchschnittswert (EWRC) gegenüber den 7 Unkraut-Arten” value in data set [1] (1000 g/ha Aktivstoff II alone) is given as 5,5. Also, the “Schädigung Raps” value in the data set on Raps (500 g/ha Aktivstoff II alone) is recorded as “deutlich geschädigt”. Also, the “Wirkung auf Chenopodium album” value in data set [2] (1000 g/ha Aktivstoff II alone) is given as 91%. Besides, the “LD 50 p.o.” value with Ratte is given as 2150 mg/kg.
